Measurements taken from article PMC5656653, “Evaluation of Ga-DOTA-(D-Asp)n as bone imaging agents: D-aspartic acid peptides as carriers to bone” (Scientific Reports, 2017).
Where two headings read alike, the source gives them in different places. Where a SMILES comes first, the peptide text is derived from it. [ ]: non-standard residue; d: D form. The star is where a group is joined. DOTA = O=C(O)CN1CCN(CC(=O)O)CCN(CC(=O)*)CCN(CC(=O)O)CC1

Tests used:
[1] = Urine analyses by RP-HPLC after i.v. injection; type: in vivo; conditions: mice, urine from bladder at 1 h post-injection
Description: ^67Ga-DOTA-(L-Asp)14 was prepared according to a method described previously. ^67Ga-DOTA-(L-Asp)14 or ^67Ga-DOTA-(D-Asp)14 solution (370 kBq / 200 μL) was intravenously injected to 6-week-old male ddY mice. At 1 h post-injection, mice were sacrificed and their […] were taken from the bladders. After ultrafiltration (Microcon-30, Merck KGaA), the filtrate samples were analyzed by RP-HPLC at a flow rate of 1 mL/min with a gradient mobile phase from water containing 0.1% TFA to 20% methanol in water containing 0.1% TFA for 20 min.

[2] = Biodistribution experiments in normal mice after i.v. injection; type: in vivo; conditions: i.v.; for tissue uptake dose at 10 min / tissue uptake dose at 1 h / tissue uptake dose at 3 h: male, ddY, mouse, in vivo, iv, total radioactivity; for tissue uptake dose at 10 min / tissue uptake dose at 1 h / tissue uptake dose at 3 h / F/B ratio (Femur:blood ratio): mice, mean (SD)
How it was run: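 Male ddY mice (6 weeks, 27–32 g) received tracer i.v. (37–740 kBq/100 μL); 4–5 per group sacrificed at 10, 60 and 180 min. Weighed tissues and whole left femur (bone) gamma-counted with background and decay correction.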

With `O=C(O)C[C@@H](NC(=O)[C@@H](CC(=O)O)NC(=O)[C@@H](CC(=O)O)NC(=O)[C@@H](CC(=O)O)NC(=O)[C@@H](CC(=O)O)NC(=O)[C@@H](CC(=O)O)NC(=O)[C@@H](CC(=O)O)NC(=O)[C@@H](CC(=O)O)NC(=O)[C@@H](CC(=O)O)NC(=O)[C@@H](CC(=O)O)NC(=O)[C@@H](CC(=O)O)NC(=O)[C@@H](CC(=O)O)NC(=O)[C@@H](CC(=O)O)NC(=O)[C@@H](CC(=O)O)NC(=O)CN1CCN(CC(=O)O)CCN(CC(=O)O)CCN(CC(=O)O)CC1)C(=O)O` [^67Ga-DOTA-(D-Asp)14, metal not drawn] ({DOTA}-[dD][dD][dD][dD][dD][dD][dD][dD][dD][dD][dD][dD][dD][dD]-OH) the “Ratio of the intact complex in urine” value [1] was 85.8 ± 17.4%, the tissue uptake dose at 10 min ([2]; 10 min after injection, footnote b, read-out: Biodistribution of radioactivity, Stomach) was 0.28 %ID and the tissue uptake dose at 10 min ([2]; 10 min after injection, read-out: Biodistribution of radioactivity, Blood) was 2.46 %ID. It also gave a tissue uptake dose at 10 min ([2]; 10 min after injection, read-out: Biodistribution of radioactivity, Bone (Femur)) of 11.9 %ID, a tissue uptake dose at 10 min ([2]; 10 min after injection, read-out: Biodistribution of radioactivity, Brain) of 0.06 %ID and a tissue uptake dose at 10 min ([2]; 10 min after injection, read-out: Biodistribution of radioactivity, Heart) of 0.94 %ID. For the same molecule, the tissue uptake dose at 10 min ([2]; 10 min after injection, read-out: Biodistribution of radioactivity, Kidney) was 8.15 %ID, the tissue uptake dose at 10 min ([2]; 10 min after injection, read-out: Biodistribution of radioactivity, Large-intestine) was 0.4 %ID and the tissue uptake dose at 10 min ([2]; 10 min after injection, read-out: Biodistribution of radioactivity, Liver) was 0.51 %ID. The tissue uptake dose at 10 min ([2]; 10 min after injection, read-out: Biodistribution of radioactivity, Lung) was 1.75 %ID, the tissue uptake dose at 10 min ([2]; 10 min after injection, read-out: Biodistribution of radioactivity, Muscle) was 0.77 %ID and the tissue uptake dose at 10 min ([2]; 10 min after injection, read-out: Biodistribution of radioactivity, Pancreas) was 0.88 %ID. The tissue uptake dose at 10 min ([2]; 10 min after injection, read-out: Biodistribution of radioactivity, Small-intestine) was 0.55 %ID, the tissue uptake dose at 10 min ([2]; 10 min after injection, read-out: Biodistribution of radioactivity, Spleen) was 0.48 %ID and the tissue uptake dose at 1 h ([2]; 60 min after injection, footnote b, read-out: Biodistribution of radioactivity, Stomach) was 0.07 %ID. It also gave a tissue uptake dose at 1 h ([2]; 60 min after injection, read-out: Biodistribution of radioactivity, Blood) of 0.09 %ID, a tissue uptake dose at 1 h ([2]; 60 min after injection, read-out: Biodistribution of radioactivity, Bone (Femur)) of 13 %ID and a tissue uptake dose at 1 h ([2]; 60 min after injection, read-out: Biodistribution of radioactivity, Brain) of 0.01 %ID. It also gave a tissue uptake dose at 1 h ([2]; 60 min after injection, read-out: Biodistribution of radioactivity, Heart) of 0.18 %ID, a tissue uptake dose at 1 h ([2]; 60 min after injection, read-out: Biodistribution of radioactivity, Kidney) of 1.21 %ID and a tissue uptake dose at 1 h ([2]; 60 min after injection, read-out: Biodistribution of radioactivity, Large-intestine) of 0.1 %ID. The tissue uptake dose at 1 h ([2]; 60 min after injection, read-out: Biodistribution of radioactivity, Liver) was 0.15 %ID, the tissue uptake dose at 1 h ([2]; 60 min after injection, read-out: Biodistribution of radioactivity, Lung) was 0.28 %ID and the tissue uptake dose at 1 h ([2]; 60 min after injection, read-out: Biodistribution of radioactivity, Muscle) was 0.16 %ID. The tissue uptake dose at 1 h ([2]; 60 min after injection, read-out: Biodistribution of radioactivity, Pancreas) was 0.27 %ID, the tissue uptake dose at 1 h ([2]; 60 min after injection, read-out: Biodistribution of radioactivity, Small-intestine) was 0.18 %ID and the tissue uptake dose at 1 h ([2]; 60 min after injection, read-out: Biodistribution of radioactivity, Spleen) was 0.12 %ID. For the same molecule, the tissue uptake dose at 3 h ([2]; 180 min after injection, footnote b, read-out: Biodistribution of radioactivity, Stomach) was 0.06 %ID, the tissue uptake dose at 3 h ([2]; 180 min after injection, read-out: Biodistribution of radioactivity, Blood) was 0.03 %ID and the tissue uptake dose at 3 h ([2]; 180 min after injection, read-out: Biodistribution of radioactivity, Bone (Femur)) was 14.8 %ID. It also gave a tissue uptake dose at 3 h ([2]; 180 min after injection, read-out: Biodistribution of radioactivity, Brain) of 0.01 %ID, a tissue uptake dose at 3 h ([2]; 180 min after injection, read-out: Biodistribution of radioactivity, Heart) of 0.11 %ID and a tissue uptake dose at 3 h ([2]; 180 min after injection, read-out: Biodistribution of radioactivity, Kidney) of 0.54 %ID. The tissue uptake dose at 3 h ([2]; 180 min after injection, read-out: Biodistribution of radioactivity, Large-intestine) was 0.2 %ID, the tissue uptake dose at 3 h ([2]; 180 min after injection, read-out: Biodistribution of radioactivity, Liver) was 0.05 %ID and the tissue uptake dose at 3 h ([2]; 180 min after injection, read-out: Biodistribution of radioactivity, Lung) was 0.03 %ID. It also gave a tissue uptake dose at 3 h ([2]; 180 min after injection, read-out: Biodistribution of radioactivity, Muscle) of 0.16 %ID, a tissue uptake dose at 3 h ([2]; 180 min after injection, read-out: Biodistribution of radioactivity, Pancreas) of 0.14 %ID and a tissue uptake dose at 3 h ([2]; 180 min after injection, read-out: Biodistribution of radioactivity, Small-intestine) of 0.12 %ID. The tissue uptake dose at 3 h ([2]; 180 min after injection, read-out: Biodistribution of radioactivity, Spleen) was 0.12 %ID, the “F/B ratio (Femur:blood ratio)” value ([2]; 10 min after injection) was 4.90 (0.70) and the “F/B ratio (Femur:blood ratio)” value ([2]; 60 min after injection) was 180.99 (91.94). The “F/B ratio (Femur:blood ratio)” value ([2]; 180 min after injection) was 526.37 (130.49), the “Accumulation of radioactivity in bone (in words)” value ([2]; normal mice) was “high accumulation and retention of radioactivity in bone” and the “Radioactivity in the kidneys (in words)” value ([2]; normal mice) was “extremely low accumulation of radioactivity in the kidneys”.
